Results as given in US20210371817A1, “COMPOSITIONS AND METHODS FOR PRECISE PATTERNING OF POSTERIOR NEUROECTODERM FROM HUMAN PLURIPOTENT STEM CELLS” (WISCONSIN ALUMNI RESEARCH FOUNDATION, priority 2013, published 2021).

What was measured:
Assay type in all cases: cell-based, human
H9 hESCs = assay: HOX, OTX2 and T gene expression by RT-PCR/qPCR during hESC differentiation with morphogens; details: HX531 1 μM; RT-PCR
Protocol: hPSC differentiation. hPSCs were washed once with phosphate-buffered saline (PBS; Invitrogen), dissociated with ACCUTASE® (Invitrogen) for 3 min, and collected by centrifugation. hPSCs were then seeded onto VTN-NC-coated plates in E8 medium containing 10 μM ROCK inhibitor (Y27632; R&D Systems). Seeding density was 2×10^5 cells/cm^2. The following day, the cells were switched to E6 medium (same composition as E8 medium minus FGF2 and TGFβ 1). Morphogen treatments were then carried out according to the figures in the text. Cells were supplemented with FGF8b (100-200 ng/ml; Peprotech), CHIR99021 (3-6 μM; Tocris), and/or RA (3 μM; Sigma).
Reverse transcriptase polymerase chain reaction (RT-PCR). Total RNA was extracted from cells using TRIZOL® reagent (Invitrogen) according to the manufacturer's instructions. RNA was then subjected to reverse-transcription using a Thermoscript™ RT-PCR kit (Invitrogen) in a 20 μL mixture according to the manufacturer's instructions. The resulting cDNA was then amplified in a 25 μL mixture containing 10×PCR buffer, 0.2 mM dNTP, 1.5 mM MgCl2, 0.5 μM of each primer, and 1 U Taq DNA polymerase (Invitrogen). Amplified products were resolved on 2% agarose gels containing SYBR Safe (Invitrogen) and visualized with a VersaDoc (BioRad). Primer sequences can be found in Table 3. All amplifications were carried out for 35 cycles. HOXC5 and HOXC6 were amplified at 58° C., all others with an annealing temperature of 55° C.
Propagation and differentiation of neuromesodermal progenitors. H9 hESCs (passage 25-45), H9 ishcat2 hESCs (passage 33-43), and IMR90-4 iPSCs (passage 31-40) were maintained in E8 medium on MATRIGEL© (BD Biosciences) as previously described. To initiate differentiation, hPSCs were passaged with ACCUTASE© (Life Technologies) onto vitronectin (VTN-NC)-coated plates at a density of 1×10^5 cells/cm^2 as previously described. The following day, cells were changed to E6 medium. 24 h later, cells were changed to E6 medium containing 200 ng/ml FGF8b (Peprotech). 24 h later, cells were washed once with 2 ml PBS, treated with ACCUTASE® for 2 min, and removed from the surface by gentle pipetting. After collection by centrifugation, cells were gently resuspended in E6 medium containing 200 ng/ml FGF8b and CHIR99021 (CHIR, concentration varied depending on cell line; Tocris) and re-seeded on VTN-NC-coated plates at a density of 1.5×10^5 cells/cm^2. Medium was not changed until 48 h after passaging. This passaging process was repeated on day 3 of CHIR 99021 treatment (re-seed density of 1.2×10^5 cells/cm^2) if extended neuromesodermal propagation was required, and 50 ng/ml GDF11 (Peprotech) was added on day 4 of CHIR 99021 treatment to initiate lumbar patterning. Cells were changed to E6 medium containing 1 μM retinoic acid (RA; Sigma) to facilitate neural transition.
qPCR. Total RNA was extracted from cultured cells using TRIZOL® (Life Technologies) according to the manufacturer's instructions. After isolation, 2-5 μg of total RNA was immediately subjected to reverse transcription using the Thermoscript™ RT-PCR kit (Life Technologies) in a 20 μL reaction according to the manufacturer's instructions. […] For all experiments, ΔΔCt values for each gene were calculated relative to ribosomal protein S18 (RPS18) RNA levels and converted to fold difference assuming 100% primer efficiency, then normalized to maximum expression levels as indicated in each figure legend. […]

[1] = test system: neuromesodermal progenitors; assay: Neuroectoderm or mesoderm fate transition of neuromesodermal progenitors by flow cytometry
Protocol: (§1) Assessment of neuroectoderm or mesoderm fate transition by flow cytometry. Grey histogram, IgG control; red histogram, antigen of interest. Data are presented as mean±standard deviation calculated from two biological replicates. (FIG. 8B) For experiments in panels FIGS. 8C-8F, neuromesodermal propagation was halted by removing FGF8b/CHIR 99021/GDF11 and adding RA. Assays were conducted after 4 days of RA treatment. (FIG. 8C) HOX profiles generated after RA treatment. Each gene is normalized to its maximum expression. Error bars are standard deviation calculated from duplicate reactions. (FIG. 8D) HoxB4 and HoxD10 expression in neuroepithelial cultures after RA treatment. Scale bars, 100 m. (FIG. 8E) Purity of Sox2, Pax6, HoxB4, and HoxD10 after 4 days of RA treatment. Sox2, Pax6, and HoxB4 were quantified using flow cytometry and HoxD10 was quantified by manual counting of dissociated cells ([…]). Error bars are standard deviation calculated from at least two biological replicates. […] (FIG. 8F) Motor neuron differentiation at cervical, thoracic, and lumbar spinal cord depths, where the motor neuron precursors show region-specific patterns of FoxP1, Isl1, and Hb9 co-expression. (FIG. 8G) Neuronal maturation from cervical, thoracic, and lumbar patterned NSCs, as assessed by immunocytochemistry (top panel; DAPI (blue) is overlaid in all images; Scale bars, 20 m) and RT-PCR (50 cycles; bottom panel).
(§2) Flow cytometry. Flow cytometry was conducted as described in the Examples above. Primary antibodies against Sox2 (mouse; 1:1000; Millipore), brachyury (goat; 1:200; R&D Systems), Pax6 (mouse; 1:200; DSHB), and HoxB4 (rat; 1:50; DSHB) were utilized. Samples were run on a FACSCaliber (BD Biosciences) and data were analyzed using Cyflogic software. Positive events were quantified by gating above the top 1% of species-matched IgG controls.
We next evaluated the transition of neuromesodermal progenitors to definitive neural progenitors. RA secreted from somites in response to declining FGF signaling elicits dorsal/ventral patterning and expression of the neuroectoderm marker Pax6 in vivo^16, 26, which led us to suspect RA serves as both the neuroectoderm fate switch and HOX ‘stop signal’. We first investigated the ability of RA to initiate neuroectoderm specification from neuromesodermal progenitors. […] At any point in neuromesodermal differentiation, the addition of RA generated highly pure (>83%) Pax6^+ neuroectoderm (FIGS. 8B-8E and FIGS. 9A-9C).

NSC cultures = assay: Hox protein expression in NSC cultures after RA treatment (immunocytochemistry, flow cytometry)
Protocol: as §1
FIGS. 9A-9C (FIG. 9A) provides additional data showing that RA induces a neuroectodermal fate and halts colinear HOX activation, using the neural differentiation scheme shown in FIG. 8B and representative hindbrain cultures assessed by qPCR. (FIG. 9B) Representative hindbrain cultures assessed by immunocytochemistry. (FIG. 9C) Representative hindbrain cultures assessed by flow cytometry. All data are presented as mean±S.D. and qPCR data are normalized to the time point of maximum expression for each gene. For the hindbrain cultures, HoxB1 and HoxB4 were quantified by immunocytochemistry relative to DAPI+ nuclei, while Sox2 and Pax6 were quantified by flow cytometry. Scale bars, 100 m.
as §2
Immunocytochemistry. Immunocytochemistry was conducted as previously described. […]

H9 ishcat2 line = assay: qPCR gene expression in H9 ishcat2 line (doxycycline-inducible β-catenin shRNA)
Protocol: Cell lines were passaged for differentiation on day −1 for all experiments (see Example 4 for details). (FIG. 4A) Timeline of H9 hESC differentiation corresponding to panels (FIG. 4B) and (FIG. 4C). RA, 1 μM; CHIR 99021, 3 μM; FGF8b, 100 ng/ml. (FIG. 4B) Gene expression analysis by RT-PCR. Control sample is E6 medium alone. (FIG. 4C) qPCR analysis at day 5 of differentiation normalized to the morphogen treatment that yielded maximum expression. Statistical significance was calculated using the Student's unpaired t-test relative to the sample with maximum expression (*, p<0.005; **, p<0.001). (FIG. 4D) qPCR analysis of gene expression at day 2 using the H9 ishcat2 line in the presence or absence of doxycycline (2 μg/ml) added 3 days prior to morphogen treatment. Data are normalized to doxycycline-free samples for each respective morphogen and statistical significance was calculated using the Student's unpaired t-test (*, p<0.01). (FIG. 4E) qPCR analysis of gene expression at day 5 using the H9 ishcat2 line in the presence or absence of doxycycline. Statistical significance was calculated using the Student's unpaired t-test (*, p<0.005). […] [HX531]=1 μM. Timeline shown on left panel.
qPCR. Total RNA was extracted from cultured cells using TRIZOL® (Life Technologies) according to the manufacturer's instructions. After isolation, 2-5 μg of total RNA was immediately subjected to reverse transcription using the Thermoscript™ RT-PCR kit (Life Technologies) in a 20 μL reaction according to the manufacturer's instructions. Resultant cDNA was diluted to 200 μL and utilized for qPCR (25 μL reactions, 1 μL cDNA per reaction) on a BioRad CFX96 detection unit using TAQMAN® Gene Expression Master Mix (Life Technologies) and TAQMAN® primers (Life Technologies). For all experiments, ΔΔCt values for each gene were calculated relative to ribosomal protein S18 (RPS18) RNA levels and converted to fold difference assuming 100% primer efficiency, then normalized to maximum expression levels as indicated in each figure legend.
To confirm the effects of CHIR 99021 were due to activation of β-catenin, we utilized the H9 ishcat2 line which harbors a doxycycline-inducible β-catenin shRNA cassette^23. […] We extended doxycycline with FGF8b/CHIR 99021 for 4 days and observed a reduction in HOXC6 by 9-fold, HOXC8 by 7-fold, and HOXC9 by 8-fold, which implicates β-catenin in HOX progression to caudal paralogs (FIG. 4E).

[2] = test system: neurally differentiating hPSC cultures; assay: Alternative FGF isoforms in HOX patterning protocol (flow cytometry, RT-PCR); details: for Sox2 and T (Brachyury) expression: FGF with CHIR, flow cytometry; for Hox1-5 paralog activation: two days of FGF/CHIR treatment, RT-PCR
Protocol: (FIG. 6A) Timeline of differentiation. […] (FIG. 6H) Agarose gel analysis for HOXgene expression after two days of FGF/CHR treatment in the protocol outlined in (FIG. 6A).
Specifically, FGF8a, 8b, and 8f, FGF17, FGF18, and FGF2 were used to execute our HOX patterning protocol on concurrent neurally differentiating hPSC cultures. The ability of alternative FGFs to recapitulate the effects of FGF8b was assessed by their ability to maintain a Sox2^+/T^+ neuromesodermal state while also inducing a similar rate of sequential HOXgene expression. Post FGF/CHIR addition, flow cytometry assays for Sox2 and T were performed, and the rate of sequential HOXgene expression was assessed by RT-PCR for a select panel of HOXgenes on collected mRNA samples.

[3] = neuromesodermal progenitors exposed to E6 medium with the substance
[4] = doxycycline prior to CHIR 99021 treatment, day 2
[5] = doxycycline with FGF8b/CHIR 99021 for 4 days

CN1c2ccc([N+](=O)[O-])cc2N=C(c2ccc(C(=O)O)cc2)c2cc3c(cc21)C(C)(C)CCC3(C)C [HX531]
Effect on ability of FGF8b/CHIR 99021 to activate cervical and thoracic HOX paralogs (H9 hESCs): did not prevent

CC1=C(/C=C/C(C)=C/C=C/C(C)=C/C(=O)O)C(C)(C)CCC1 [RA, retinoic acid]
Purity of Pax6+ neuroectoderm ([1]; RA added at any point in neuromesodermal differentiation): > 83% | Brachyury+ cells [1, 3]: 43±4% | Pax6+ cells [1, 3]: 97±3% | Sox2+ cells [1, 3]: 98±4% | HoxB4+ cells (NSC cultures; RA added 24 h later (within 24 h of HOXC9 induction)): 12±4% | HoxB4+ cells (NSC cultures; RA added between 24-48 h of neuromesodermal propagation): 84±10%

C[C@H]1c2cccc(O)c2C(=O)C2=C(O)[C@]3(O)C(=O)C(C(N)=O)=C(O)[C@@H](N(C)C)[C@@H]3[C@@H](O)[C@@H]21 [doxycycline]
CTNNB1 reduction (H9 ishcat2 line; RA-treated cells, day 2): 2 fold | CTNNB1 (β-catenin) expression reduction (H9 ishcat2 line; doxycycline 2 μg/ml prior to CHIR 99021 treatment, day 2): 2.5 fold | HOXA1 expression decrease (H9 ishcat2 line; [4]): 15 fold | HOXB1 expression decrease (H9 ishcat2 line; [4]): 47 fold | T reduction (H9 ishcat2 line; doxycycline with FGF8b/CHIR 99021, day 5): 30 fold | HOXC6 reduction (H9 ishcat2 line; [5]): 9 fold | HOXC8 reduction (H9 ishcat2 line; [5]): 7 fold | HOXC9 reduction (H9 ishcat2 line; [5]): 8 fold

FGF2: fibroblast growth factor isoform used instead of FGF8b
Sox2 and T (Brachyury) expression [2]: nearly uniform expression of Sox2 and T (Brachyury) | Hox1-5 paralog activation [2]: activated Hox1-5 paralogs

B1: FGF17: fibroblast growth factor isoform used instead of FGF8b (protein, UniProt O60258 23-216, looked up)
Fibroblast growth factor 17: TQGENHPSPNFNQYVRDQGAMTDQLSRRQIREYQLYSRTSGKHVQVTGRRISATAEDGNKFAKLIVETDTFGSRVRIKGAESEKYICMNKRGKLIGKPSGKSKDCVFTEIVLENNYTAFQNARHEGWFMAFTRQGRPRQASRSRQNQREAHFIKRLYQGQLPFPNHAEKQKQFEFVGSAPTRRTKRTRRPQPLT
Sox2 and T (Brachyury) expression [2]: nearly uniform expression of Sox2 and T (Brachyury) | Hox1-5 paralog activation [2]: activated Hox1-5 paralogs

B2: FGF18: fibroblast growth factor isoform used instead of FGF8b (protein, UniProt O76093 28-207, looked up)
Fibroblast growth factor 18: EENVDFRIHVENQTRARDDVSRKQLRLYQLYSRTSGKHIQVLGRRISARGEDGDKYAQLLVETDTFGSQVRIKGKETEFYLCMNRKGKLVGKPDGTSKECVFIEKVLENNYTALMSAKYSGWYVGFTKKGRPRKGPKTRENQQDVHFMKRYPKGQPELQKPFKYTTVTKRSRRIRPTHPA
Sox2 and T (Brachyury) expression [2]: nearly uniform expression of Sox2 and T (Brachyury) | Hox1-5 paralog activation [2]: activated Hox1-5 paralogs
